Structures can show the parent of a compound that is named as a salt.
Key:
Format in all cases: physicochemical
[1] = Test of solubility in water for injection; conditions: stirred at 37° C. for 1 hour
Protocol: 1. Formulation of Calibration Curve
First, 5 mg of monohydrochloride crystalline form I of the compound represented by formula (I) was precisely weighed and dissolved in a mixed solution of acetonitrile:water (1:1), and thus a 500 μg/mL solution was obtained. The obtained solution was diluted with a mixed solution of acetonitrile:water (1:1) such that the concentrations of the compound were 5 and 50 μg/mL, and a standard calibration curve was prepared. The same operation was carried out for monohydrochloride crystalline form II, monohydrochloride crystalline form V, monohydrochloride crystalline form VI, mono-p-toluenesulfonate crystalline form I, and free base crystals.
2. Formulation of Sample Solution
First, 1 mg of monohydrochloride crystalline form I of the compound represented by formula (I) was precisely weighed and transferred to a vial having a volume of 4 mL. Then, 1 mL of water (water for injection) was added, and the mixture was stirred at 37° C. for 1 hour. After being stirred, this suspension was filtered, and the peak area using a solution obtained by diluting the filtrate two-fold with a mixed solution of acetonitrile:water (1:1) as a sample. The concentration was calculated using the peak area and the calibration curve prepared above. The same operation was carried out for monohydrochloride crystalline form II, monohydrochloride crystalline form V, monohydrochloride crystalline form VI, mono-p-toluenesulfonate crystalline form I, and free base crystals.

[2] = Water sorption-desorption isothermal measurement; conditions: ratio of increased moisture mass
Description: Water Sorption-desorption Isothermal Measurement

[3] = Light exposure test of crystals (E isomer by HPLC); conditions: for E isomer (Retention time 38 minutes) Increased amount: light exposed sample minus dark control
[4] = Test of solubility in organic solvent; conditions: stirred at 22° C. for 4 hours, supernatant; for Concentration (% by weight) 2-Propanol: suspended in 2-propanol; for Concentration (% by weight) Acetone: suspended in acetone; for Concentration (% by weight) Ethyl acetate: suspended in ethyl acetate
Protocol: The monohydrochloride crystalline form I, monohydrochloride crystalline form V, and free base crystals of the compound represented by formula (I) were each suspended in 2-propanol, acetone, and ethyl acetate, and stirred at 22° C. for 4 hours, and the concentrations of supernatants were measured.

[5] = Influence of light wavelength on related substances in solution
Protocol: In order to research the influence of light of the compound represented by formula (I), the amount of the related substances was measured after illumination with constant quantity of light.
A fixed amount of monohydrochloride of the compound represented by formula (I) was collected and dissolved in a mix of pH7 buffer:methanol:acetonitrile=38:31:31 to prepare a solution of 800 μg/mL. The solution was sealed in glass bottles. Thereafter, the glass bottles containing solution were irradiated with light of different wavelengths by a light irradiator (CRM-FA manufactured by Nippon Spectroscopy) and the amounts of related substances were measured.
The amount of the related substances was measured by liquid chromatography by employing the following method and conditions. The main related substance was the E-form of the optical isomer of the compound represented by formula (I). Therefore, in the analysis of the related substance amount, the E-form of the optical isomer of the compound represented by formula (I) was used as a reference for the analysis. • Detector: ultraviolet absorptiometer (measurement wavelength: 225 nm) • Column: Cadenza CW-C18 3μ, 4.6×150 mm (Imtakt) • Column temperature: constant temperature around 35° C. • Mobile Phase A: 10 mM ammonium acetate, […]

[6] = listed as mono-p-toluenesulfonate crystalline form I
[7] = listed as Monohydrochloride form crystal V
[8] = listed as Monohydrochloride form crystal VI

| Structure (SMILES) | Solubility in water for injection [1] | Ratio of increased mass [2] | E isomer (Retention time 38 minutes) Dark control [3] | E isomer (Retention time 38 minutes) Light exposed sample [3] | E isomer (Retention time 38 minutes) Increased amount [3] | Concentration (% by weight) 2-Propanol [4] | Concentration (% by weight) Acetone [4] | Concentration (% by weight) Ethyl acetate [4] | other results |
| --- | --- | --- | --- | --- | --- | --- | --- | --- | --- |
| CC#C/C(=N\OC[C@H]1COCCN1)c1ccc2ncnc(Nc3ccc(OCc4cccc(F)c4)c(Cl)c3)c2c1 [Mono-p-toluenesulfonate crystalline form I] | high solubilities | About 1.4% | 0.10 area % | 32.86 area % | 32.76 area % | – | – | – | Ratio of increased mass [2, 6]: small; E isomer (Retention time 38 minutes) Increased amount [3, 6]: about 33 area % |
| CC#C/C(=N\OC[C@H]1COCCN1)c1ccc2ncnc(Nc3ccc(OCc4cccc(F)c4)c(Cl)c3)c2c1 [Monohydrochloride crystalline form II] | high solubilities | About 0.3% | 1.44 area % | 1.21 area % | −0.23 area % | – | – | – | Ratio of increased mass ([2]; listed as monohydrochloride crystalline form H): small |
| CC#C/C(=N\OC[C@H]1COCCN1)c1ccc2ncnc(Nc3ccc(OCc4cccc(F)c4)c(Cl)c3)c2c1 [Free base crystal] | – | About 1.0% | – | 2.59 area % | 2.59 area % | 0.49 % by weight | 8.1 % by weight | 3.3 % by weight | Solubility in water for injection ([1]; listed as free base crystals): not dissolved in water for injection at all |
| CC#C/C(=N\OC[C@H]1COCCN1)c1ccc2ncnc(Nc3ccc(OCc4cccc(F)c4)c(Cl)c3)c2c1 | – | – | – | – | – | – | – | – | Total amount of related substances, wavelength of light higher than 450 nm ([5]; 800 μg/mL solution in pH7 buffer:methanol:acetonitrile=38:31:31, light higher than 450 nm): increased little; Total amount of related substances, wavelength of light shorter than 450 nm ([5]; 800 μg/mL solution in pH7 buffer:methanol:acetonitrile=38:31:31, light shorter than 450 nm): increased as the wavelength decreased |

More lines, main results first:

| Solubility in water for injection [1] | Ratio of increased mass [2] | E isomer (Retention time 38 minutes) Dark control [3] | E isomer (Retention time 38 minutes) Light exposed sample [3] | E isomer (Retention time 38 minutes) Increased amount [3] | Concentration (% by weight) 2-Propanol [4] | Concentration (% by weight) Acetone [4] | Concentration (% by weight) Ethyl acetate [4] | Structure (SMILES) | other results |
| --- | --- | --- | --- | --- | --- | --- | --- | --- | --- |
| high solubilities | About 1.7% | – | – | – | 0.01 % by weight | 0.02 % by weight | 0.00 % by weight | CC#C/C(=N\OC[C@H]1COCCN1)c1ccc2ncnc(Nc3ccc(OCc4cccc(F)c4)c(Cl)c3)c2c1 [Monohydrochloride crystalline form V] | Ratio of increased mass ([2]; listed as monohydrochloride crystalline form V): small; E isomer (Retention time 38 minutes) Dark control [3, 7]: 0.13 area %; E isomer (Retention time 38 minutes) Increased amount [3, 7]: 1.06 area %; E isomer (Retention time 38 minutes) Light exposed sample [3, 7]: 1.19 area % |
| high solubilities | About 0.8% | 0.63 area % | 4.41 area % | 3.78 area % | 0.03 % by weight | 0.08 % by weight | 0.01 % by weight | CC#C/C(=N\OC[C@H]1COCCN1)c1ccc2ncnc(Nc3ccc(OCc4cccc(F)c4)c(Cl)c3)c2c1 [Monohydrochloride crystalline form I] | Ratio of increased mass ([2]; listed as monohydrochloride crystalline form I): small |
| – | About 3.3% | – | – | – | – | – | – | CC#C/C(=N\OC[C@H]1COCCN1)c1ccc2ncnc(Nc3ccc(OCc4cccc(F)c4)c(Cl)c3)c2c1 [Monosulfate crystal] | Ratio of increased mass ([2]; listed as monosulfate crystals): about 3.3% |
| high solubilities | About 0.5% | – | – | – | – | – | – | CC#C/C(=N\OC[C@H]1COCCN1)c1ccc2ncnc(Nc3ccc(OCc4cccc(F)c4)c(Cl)c3)c2c1 [Monohydrochloride crystalline form VI] | Ratio of increased mass ([2]; listed as monohydrochloride crystalline form VI): small; E isomer (Retention time 38 minutes) Dark control [3, 8]: 1.16 area %; E isomer (Retention time 38 minutes) Increased amount [3, 8]: 0.64 area %; E isomer (Retention time 38 minutes) Light exposed sample [3, 8]: 1.80 area % |
